Measurements published in patent US20240033234A1, “THERAPEUTIC COMPOUNDS, FORMULATIONS, AND USE THEREOF” (Tvardi Therapeutics, Inc., priority 2022, published 2024).
Several values for one entry are separate records, joined by “and”; a condition that tells them apart may be missing. Identical values can stand only once.

Assay: 3-Month stability data for TTI-101 Batches B, C, D and E stored at 40° C./75% RH
Assay type: physicochemical
Protocol: Exemplary HPLC conditions: diluent was 0.1% trifluoroacetic acid (TFA) in acetonitrile, Mobile Phase A was 0.05% TFA in water, and Mobile Phase B was 0.05% TFA in acetonitrile, column (Agilent, Eclipse XDB-C18, 3.0×100 mm, particle size 1.8 μm), flow (0.425 mL/min), and detector (280 nm diode array).
Batches B, C, and D were prepared according to Method 5, Method 4, and Method 3, respectively, as described in Example 1. Batch E was prepared analogously using according to Method 1 as described in Example 1.
Samples of TTI-101 (Batches B, C, D, and E) were stored at 40° C./75% RH for 3 months. The batches were individually stored in an low density polyethylene (LDPE) bag enclosed with a Nylon cable tie and then transferred to another LDPE bag and enclosed with a Nylon cable tie. The enclosure was put into a high density polyethylene (HDPE) bottle and closed with a polyethylene-lined polypropylene cap. For Batch B only, another sample was enclosed in a screw-top amber glass bottle and closed with a cap. The samples were stored under the above-identified conditions.

For `COc1ccc(S(=O)(=O)Nc2cc(-c3c(O)ccc4ccccc34)c(O)c3ccccc23)cc1` [Batch B (glass storage)], the “Impurities Total, Area %” value (0 M) was 0.2 Area %, the “Impurity RRT 0.39, Area %” value (0 M) was 0.06 Area % and the “Impurity RRT 0.49, Area %” value (0 M) was “NQ (≥0.02% and <0.05%)”. For the same molecule, the “Impurity RRT 0.54, Area %” value (0 M) was “NQ (≥0.02% and <0.05%)”, the “Impurity RRT 0.99, Area %” value (0 M) was “NQ (≥0.02% and <0.05%)” and the “Impurity RRT 1.16 (Cmp 6), Area %” value (0 M) was 0.12 Area %. For the same molecule, the “Impurities Total, Area %” value (1 M) was 0.3 Area %, the “Impurity RRT 0.80, Area %” value (1 M) was “NQ (≥0.02% and <0.05%)” and the “Impurity RRT 0.84, Area %” value (1 M) was “NQ (≥0.02% and <0.05%)”. For the same molecule, the “Impurity RRT 0.87, Area %” value (1 M) was “NQ (≥0.02% and <0.05%)”, the “Impurity RRT 0.99, Area %” value (1 M) was 0.05 Area % and the “Impurity RRT 1.02, Area %” value (1 M) was 0.06 Area %. For the same molecule, the “Impurity RRT 1.06 (Cmp 4), Area %” value (1 M) was “NQ (≥0.02% and <0.05%)”, the “Impurity RRT 1.17 (Cmp 6), Area %” value (1 M) was 0.23 Area % and the “Impurity RRT 1.39, Area %” value (1 M) was “NQ (≥0.02% and <0.05%)”. The “Impurities Total, Area %” value (2 M) was 0.4 Area %, the “Impurity RRT 0.39, Area %” value (2 M) was “NQ (≥0.02% and <0.05%)” and the “Impurity RRT 0.80, Area %” value (2 M) was “NQ (≥0.02% and <0.05%)”. For the same molecule, the “Impurity RRT 0.84, Area %” value (2 M) was “NQ (≥0.02% and <0.05%)”, the “Impurity RRT 0.87, Area %” value (2 M) was “NQ (≥0.02% and <0.05%)” and the “Impurity RRT 0.99, Area %” value (2 M) was “NQ (≥0.02% and <0.05%)”. The “Impurity RRT 1.02, Area %” value (2 M) was 0.10 Area %, the “Impurity RRT 1.05, Area %” value (2 M) was “NQ (≥0.02% and <0.05%)” and the “Impurity RRT 1.06 (Cmp 4), Area %” value (2 M) was “NQ (≥0.02% and <0.05%)”. For the same molecule, the “Impurity RRT 1.17 (Cmp 6), Area %” value (2 M) was 0.323 Area % and 0.23 Area %, the “Impurity RRT 1.39, Area %” value (2 M) was 0.09 Area % and the “Impurities Total, Area %” value (3 M) was 2.9 Area %. For the same molecule, the “Impurity RRT 0.40, Area %” value (3 M) was “NQ (≥0.02% and <0.05%)”, the “Impurity RRT 0.85, Area %” value (3 M) was “NQ (≥0.02% and <0.05%)” and the “Impurity RRT 0.88, Area %” value (3 M) was “NQ (≥0.02% and <0.05%)”. The “Impurity RRT 0.98, Area %” value (3 M) was “NQ (≥0.02% and <0.05%)”, the “Impurity RRT 1.02, Area %” value (3 M) was 0.13 Area % and the “Impurity RRT 1.06 (Cmp 4), Area %” value (3 M) was “NQ (≥0.02% and <0.05%)”. The “Impurity RRT 1.10, Area %” value (3 M) was “NQ (≥0.02% and <0.05%)”, the “Impurity RRT 1.13, Area %” value (3 M) was “NQ (≥0.02% and <0.05%)” and the “Impurity RRT 1.16 (Cmp 6), Area %” value (3 M) was 2.6 Area %. The “Impurity RRT 1.38 (1.39), Area %” value (3 M) was 0.14 Area %, the Purity (%) (T = 0 month (0 M)) was 99.8% and 99.6% and the Purity (%) (T = 1 month (1 M)) was 99.5%. The Purity (%) (T = 2 months (2 M)) was 99.4% and the Purity (%) (T = 3 months (3 M)) was 97.0%.
For `COc1ccc(S(=O)(=O)Nc2cc(-c3c(O)ccc4ccccc34)c(O)c3ccccc23)cc1` [Batch B (LDPE storage)], the “Impurities Total, Area %” value (0 M) was 0.2 Area %, the “Impurity RRT 0.39, Area %” value (0 M) was 0.06 Area % and the “Impurity RRT 0.49, Area %” value (0 M) was “NQ (≥0.02% and <0.05%)”. The “Impurity RRT 0.54, Area %” value (0 M) was “NQ (≥0.02% and <0.05%)”, the “Impurity RRT 0.99, Area %” value (0 M) was “NQ (≥0.02% and <0.05%)” and the “Impurity RRT 1.16 (Cmp 6), Area %” value (0 M) was 0.12 Area %. The “Impurities Total, Area %” value (1 M) was 0.1 Area % and 0.3 Area %, the “Impurity RRT 0.80, Area %” value (1 M) was “NQ (≥0.02% and <0.05%)” and the “Impurity RRT 0.84, Area %” value (1 M) was “NQ (≥0.02% and <0.05%)”. The “Impurity RRT 0.87, Area %” value (1 M) was “NQ (≥0.02% and <0.05%)”, the “Impurity RRT 0.99, Area %” value (1 M) was “NQ (≥0.02% and <0.05%)” and the “Impurity RRT 1.02, Area %” value (1 M) was 0.05 Area %. For the same molecule, the “Impurity RRT 1.05, Area %” value (1 M) was “NQ (≥0.02% and <0.05%)”, the “Impurity RRT 1.06 (Cmp 4), Area %” value (1 M) was “NQ (≥0.02% and <0.05%)” and the “Impurity RRT 1.17 (Cmp 6), Area %” value (1 M) was 0.24 Area %. The “Impurity RRT 1.39, Area %” value (1 M) was “NQ (≥0.02% and <0.05%)”, the “Impurities Total, Area %” value (2 M) was 0.6 Area % and the “Impurity RRT 0.39, Area %” value (2 M) was “NQ (≥0.02% and <0.05%)”. The “Impurity RRT 0.51, Area %” value (2 M) was 0.06 Area %, the “Impurity RRT 0.80, Area %” value (2 M) was “NQ (≥0.02% and <0.05%)” and the “Impurity RRT 0.84, Area %” value (2 M) was “NQ (≥0.02% and <0.05%)”. For the same molecule, the “Impurity RRT 0.87, Area %” value (2 M) was “NQ (≥0.02% and <0.05%)”, the “Impurity RRT 0.99, Area %” value (2 M) was “NQ (≥0.02% and <0.05%)” and the “Impurity RRT 1.02, Area %” value (2 M) was 0.11 Area %. The “Impurity RRT 1.05, Area %” value (2 M) was “NQ (≥0.02% and <0.05%)”, the “Impurity RRT 1.06 (Cmp 4), Area %” value (2 M) was “NQ (≥0.02% and <0.05%)” and the “Impurity RRT 1.17 (Cmp 6), Area %” value (2 M) was 0.32 Area %. For the same molecule, the “Impurity RRT 1.39, Area %” value (2 M) was 0.10 Area % and 0.1 Area %, the “Impurities Total, Area %” value (3 M) was 3.2 Area % and the “Impurity RRT 0.40, Area %” value (3 M) was “NQ (≥0.02% and <0.05%)”. For the same molecule, the “Impurity RRT 0.85, Area %” value (3 M) was “NQ (≥0.02% and <0.05%)”, the “Impurity RRT 0.88, Area %” value (3 M) was “NQ (≥0.02% and <0.05%)” and the “Impurity RRT 0.98, Area %” value (3 M) was “NQ (≥0.02% and <0.05%)”. The “Impurity RRT 1.02, Area %” value (3 M) was 0.13 Area %, the “Impurity RRT 1.05, Area %” value (3 M) was “NQ (≥0.02% and <0.05%)” and the “Impurity RRT 1.06 (Cmp 4), Area %” value (3 M) was “NQ (≥0.02% and <0.05%)”. The “Impurity RRT 1.13, Area %” value (3 M) was “NQ (≥0.02% and <0.05%)”, the “Impurity RRT 1.16 (Cmp 6), Area %” value (3 M) was 2.9 Area % and the “Impurity RRT 1.38 (1.39), Area %” value (3 M) was 0.16 Area %. For the same molecule, the Purity (%) (T = 0 month (0 M)) was 99.8% and 99.6%, the Purity (%) (T = 1 month (1 M)) was 99.5% and the Purity (%) (T = 2 months (2 M)) was 99.2%. The Purity (%) (T = 3 months (3 M)) was 96.6%.
